# Legend:
# [1] = system: HIV-1; test: C8166 HIV-1 Luciferase Assay (EC50); type: cell-based; conditions: Human immunodeficiency virus 1, C8166, 72 h
# Experimental: C8166 HIV-1 Luciferase Assay (Ec50)
# The assay used to measure inhibition of HIV replication is as described in WO 2004/050643, pages 73-75, incorporated herein by reference, with the following modifications:
# Serial dilutions of HIV-1 inhibitors are prepared in complete media from DMSO stock solutions. Eleven serial dilutions of desired concentration are prepared in a 1 mL deep well titer plate (96 wells). The 12th well contains complete media with no inhibitor and serves as the positive control. All samples contain the same concentration of DMSO (<0.1% DMSO). Inhibitor is added, to triplicate wells, of a 96 well tissue culture treated clear view black microtiter plate (Corning Costar catalogue #3904). The total volume per well is 200 μL of media containing the cells and inhibitor. The last row is reserved for uninfected C8166 LTRIuc cells to serve as the background blank control and the first row is media alone.
# Count C8166 LTRIuc cells and place in a minimal volume of complete RPMI 1640 in a tissue culture flask (ex. 30×10^6 cells in 10 mL media/25 cm^2 flask). Infect cells with HIV-1 at a moi of 0.005. Incubate cells for 1.5 h at 37° C. on a rotating rack in a 5% CO2 incubator. Resuspend cells in complete RPMI to give a final concentration of 25,000-cells/well. Add cells to wells of 96 well microtiter plate containing inhibitors. Add 25,000 uninfected C8166-LTRIuc cells/well in 200 μL complete RPMI to last row for background control. Incubate cells at 37° C. in 5% CO2 incubator for 3 days.
# 50 μL Steady Glo (luciferase substrate T112=5 hours Promega catalogue # E2520) is added to each well of the 96 well plate. The relative light units (RLU) of luciferase are determined using a luminescence plate reader. The calculated % inhibition values are used to determine EC50, slope factor (n) and maximum inhibition (Imax).
# [2] = Caco-2 Permeability Assay; type: in vitro ADME; conditions: human, apparent permeability A to B, compound at 10 μM, apical buffer pH 6.0, basolateral buffer pH 7.4, read-out: Papp (cm/sec, *10^−6)
# Text: Caco-2 Permeability Assay Caco-2 cells are purchased from Cell Culture Services as frozen instant cells at a concentration of 1*10^7 cells/vial. DMEM+glutamax-I culture media is purchased from Gibco (10569). Fetal bovine serum (FBS) is purchased from HyClone (SH30396.03). Pennicilin/Streptomycin antibiotics are purchased from Gibco (15140). MEM non-essential amino acids are purchased from Gibco (11140). Hank's balanced salt solution (HBSS) is purchased from Gibco (14025). Bovine serum albumin (BSA) is purchased from Sigma-Aldrich (A7906). MES low moisture is purchased from Sigma-Aldrich (M3671). HEPES is purchased from Sigma-Aldrich (H3375). Dimethyl Sulfoxide (DMSO) is purchased from EMD (MX1457-6). Complete DMEM media is prepared by adding 1 L of FBS, 100 mL of pen/strep and 110 mL of MEM non essential amino acids to 10 L of DMEM+glutamax-I. […] Caco-2 cells are seeded on HTS transwell 24-well plates purchased from Corning (3397). These polycarbonate membrane plates have a diameter of […] and pore size of 0.4 μm. The Caco-2 cells vial is thawed in a 37° C. water bath until only a small ice pellet is left. The vial is then transferred to the laminar flow hood and its exterior is extensively washed with 70% ethanol. The total content of the vial (2 mL) is transferred into a 50 mL tube containing 38 mL of complete DMEM. […] The seeding is done by the Hamilton star robotic station which is controlled with the Venus program. Each well will receive 600 μL of complete DMEM on its basolateral side and 200 μL of cells on its apical side. Each well receives 50 000 cells. The 24-well plates are then returned to an automated Liconic STX110 incubator set at 37° C., 5% CO2 and 100% humidity. The culture media for the cells is changed every two days except on weekends. These cells are maintained for a period of two weeks prior to the running of the permeability assay. Permeability assays are usually performed between day 15 and 18 after the initial seeding. […] Controls for the assay are mannitol for tight junction determination and Digoxin for efflux transporter (p-glycoprotein) expression. On the day of the assay, each compound is diluted to 10 μM in the buffer (apical for A to B). 6 μl of the 5 mM DMSO stock is added to 3 mL of the buffer in a 24-well 10 mL deep plate covered with a lid. The plate containing all the diluted compounds is spun for 10 min at 3000 rpm in a Rotanta 46 RSC centrifuge from Hettich to remove unsoluble compound. This dilution is used to add at the start of the incubation. Each compound is tested in duplicate. On the day of the assay, the culture media of the 24-well plate is removed and replaced with warm HBSS. The HBSS is then also removed and the Apical and Basolatral buffer are added to their respective side of the transwells. These steps are performed by the Hamilton Star robotic station. The plate is then placed in a 37° C. incubator and is left to equilibrate for 30 min. After 30 min of incubation a background sample (25 μL from each well) is taken from the receiver side (Basolateral for A to B), and replenished with warm buffer. These samples and all others afterwards are kept in a 96-well 1 mL plate. To start the assay, the donor compartment (apical for A to B) is emptied and replaced with new buffer containing the compound at 10 μM. Once the compounds are added, the plate is returned to the 37° C. incubator and the timer is started. In order to determine how much compound is actually added to each well, a 50 μL sample is taken from each compound dilution, this sample is refered to as the load. These steps and the following are performed by the Tecan Freedom EVO robotic station controlled via the Gemini software. For A-to-B Assay: Samples (190 μL) are taken from each basolateral (receiver) chamber at time points 0, 60, 120 and 180 min or at time points 0, 30, 60 and 90 min. From the 190 μL taken, 50 μL is transferred to the receiving plate and 140 μL is discarded.
Structure (SMILES),EC50 [1],Papp A→B at 10 μM [2]
CC[C@H]1C[C@@H](n2c(=O)nc(-c3cnn(C)c3)c3oc4c(C)nc(-c5cnn(C)c5)cc4c32)CCO1 [Compound 1082],3.3 nM,18.9 ×10⁻⁶ cm/s
CCn1cc(-c2cnc3oc4c(-c5ccc(NC)nc5)nc(=O)n(CCC5CCCCO5)c4c3c2)cn1 (stereo not drawn) [Compound 1067],40 nM,5.3 ×10⁻⁶ cm/s
CC[C@H]1C[C@@H](n2c(=O)nc(-c3cnn(C)c3)c3oc4cnc(-c5cnn(CCOC)c5)cc4c32)CCO1 [Compound 1085],120 nM,19.2 ×10⁻⁶ cm/s
CC[C@H]1C[C@@H](n2c(=O)nc(-c3cnn(C)c3)c3oc4ccc(-c5cn(C)cn5)nc4c32)C[C@@H](C)O1 [Compound 1095],8.6 nM,39.8 ×10⁻⁶ cm/s
CC[C@H]1C[C@@H](n2c(=O)nc(-c3cnn(C)c3)c3oc4cnc(-c5cnn(C)c5)cc4c32)CCCO1 [Compound 1087],9.7 nM,23.1 ×10⁻⁶ cm/s
CC[C@H]1C[C@@H](n2c(=O)nc(-c3cnn(C)c3)c3oc4cc(F)c(-c5ccc(C(C)O)nc5)cc4c32)CCO1 (stereo partly drawn) [Compound 1046],110 nM,17.9 ×10⁻⁶ cm/s
CC[C@H]1C[C@@H](n2c(=O)nc(-c3cnn(C)c3)c3oc4ccc(-c5cnn(C)c5)nc4c32)CCO1 [Compound 1001],4.9 nM,20.4 ×10⁻⁶ cm/s
CC[C@H]1C[C@@H](n2c(=O)nc(-c3cnn(C)c3)c3oc4c(C#N)cc(-c5cn(C)cn5)cc4c32)CCO1 [Compound 1098],9.9 nM,5.3 ×10⁻⁶ cm/s
CC[C@H]1C[C@@H](n2c(=O)nc(-c3cnn(C)c3)c3oc4cc(C#N)c(-c5ccn(C)n5)cc4c32)CCO1 [Compound 1054],32.2 nM,20.3 ×10⁻⁶ cm/s
C[C@@H]1C[C@H](n2c(=O)nc(-c3cnn(C)c3)c3oc4cc(C#N)c(-c5cnn(C)c5)cc4c32)C[C@H](C)O1 [Compound 1052],150 nM,18.2 ×10⁻⁶ cm/s
CC[C@H]1C[C@@H](n2c(=O)nc(-c3cnn(C)c3)c3oc4nc(C)c(-c5cnco5)cc4c32)CCO1 [Compound 1080],120 nM,12.4 ×10⁻⁶ cm/s
CC[C@H]1C[C@@H](n2c(=O)nc(-c3ccc(NC)nc3)c3oc4cnc(-c5cnn(C)c5)cc4c32)CCO1 [Compound 1077],6 nM,14.7 ×10⁻⁶ cm/s
CC[C@H]1C[C@@H](n2c(=O)nc(-c3cnn(C)c3)c3oc4ccc(-n5cncn5)nc4c32)CCO1 [Compound 1013],98 nM,16.8 ×10⁻⁶ cm/s
CC[C@H]1C[C@@H](n2c(=O)nc(-c3cnn(C)c3)c3oc4cc(Cl)c(-c5cnn(C)c5)nc4c32)CCO1 [Compound 1022],3.2 nM,17.2 ×10⁻⁶ cm/s
CNc1ccc(-c2nc(=O)n(CCC3CCCO3)c3c2oc2cc(F)c(-c4cnn(C)c4)cc23)cn1 (stereo not drawn) [Compound 1032],11.9 nM,7.7 ×10⁻⁶ cm/s
CC[C@H]1C[C@@H](n2c(=O)nc(-c3cnn(CC)c3)c3oc4ncc(-c5cnn(CC)c5)cc4c32)CCO1 [Compound 1072],110 nM,21.4 ×10⁻⁶ cm/s
CC[C@H]1C[C@@H](n2c(=O)nc(-c3cnn(C)c3)c3oc4ccc(-c5cnn(C)c5)nc4c32)C[C@@H](C)O1 [Compound 1009],4.6 nM,27.6 ×10⁻⁶ cm/s

Structure (SMILES),EC50 [1],Papp A→B at 10 μM [2]
CN(C)c1ccc(-c2nc(=O)n(CCC3CCCO3)c3c2oc2cc(F)c(-c4cnn(C)c4)cc23)cn1 (stereo not drawn) [Compound 1034],23 nM,6.8 ×10⁻⁶ cm/s
CN(C)c1ccc(-c2nc(=O)n(CCC3CCCO3)c3c2oc2ccc(-c4cncs4)cc23)cn1 (stereo not drawn) [Compound 1035],9.4 nM,11.5 ×10⁻⁶ cm/s
CC[C@H]1C[C@@H](n2c(=O)nc(-c3cnn(C)c3)c3oc4c(C#N)c(C)c(-c5cnn(C)c5)cc4c32)CCO1 [Compound 1060],140 nM,13 ×10⁻⁶ cm/s
CC[C@H]1C[C@@H](n2c(=O)nc(-c3cnn(C)c3)c3oc4ccc(-c5cncnc5)nc4c32)CCO1 [Compound 1004],21 nM,14.1 ×10⁻⁶ cm/s
C[C@@H]1C[C@H](n2c(=O)nc(-c3cnn(C)c3)c3oc4ccc(-c5cnn(C)c5)cc4c32)C[C@H](C)O1 [Compound 1039],36 nM,16.8 ×10⁻⁶ cm/s
CNc1ccc(-c2nc(=O)n(CCC3CCCCO3)c3c2oc2ccc(-c4cnn(C)c4)cc23)cn1 (stereo not drawn) [Compound 1036],6.8 nM,7.6 ×10⁻⁶ cm/s
CC[C@H]1C[C@@H](n2c(=O)nc(-c3cnn(C)c3)c3oc4ccc(-c5cnn(CC)c5)cc4c32)CCO1 [Compound 1041],6.6 nM,26.9 ×10⁻⁶ cm/s
C[C@@H]1C[C@H](n2c(=O)nc(-c3cnn(C)c3)c3oc4ccc(-c5cnn(C)c5)nc4c32)C[C@H](C)O1 [Compound 1008],73.9 nM,18.1 ×10⁻⁶ cm/s
CNc1ccc(-c2nc(=O)n(CCC3CCCO3)c3c2oc2c(F)cc(-c4cnn(C)c4)cc23)cn1 (stereo not drawn) [Compound 1030],10.2 nM,6.1 ×10⁻⁶ cm/s
CC[C@H]1C[C@@H](n2c(=O)nc(-c3cnn(C)c3)c3oc4ccc(-c5cn(C)cn5)nc4c32)CCO1 [Compound 1014],5.2 nM,20.7 ×10⁻⁶ cm/s
CC[C@H]1C[C@@H](n2c(=O)nc(-c3cnn(C)c3)c3oc4ncc(-c5cccnc5)cc4c32)CCO1 [Compound 1083],41 nM,12.5 ×10⁻⁶ cm/s
CC[C@H]1C[C@@H](n2c(=O)nc(-c3cnn(C)c3)c3oc4cnc(-c5cnco5)cc4c32)CCO1 [Compound 1089],30 nM,18.6 ×10⁻⁶ cm/s
CCC[C@H]1C[C@@H](n2c(=O)nc(-c3cnn(C)c3)c3oc4cc(C#N)c(-c5cnn(C)c5)nc4c32)CCO1 [Compound 1018],22 nM,19.8 ×10⁻⁶ cm/s
CC[C@@H]1C[C@H](n2c(=O)nc(-c3cnn(C)c3)c3oc4cnc(-c5cccnc5)cc4c32)CCO1 [Compound 1086],18 nM,22.5 ×10⁻⁶ cm/s
Cn1cc(-c2cnc3oc4c(-c5cnn(C)c5)nc(=O)n(CCC5CCCCO5)c4c3c2)cn1 (stereo not drawn) [Compound 1074],90 nM,11 ×10⁻⁶ cm/s
CNc1ccc(-c2nc(=O)n(CCC3CCCO3)c3c2oc2ncc(-c4cnco4)cc23)cn1 (stereo not drawn) [Compound 1066],110 nM,8.3 ×10⁻⁶ cm/s

# Reference: patent US9399645B2, “Inhibitors of HIV replication” (Boehringer Ingelheim International GmbH, priority 2011, dated 2016)
